{"source": "patent US8263606B2", "about": "(Xenon Pharmaceuticals Inc., priority 2008, dated 2012)", "key": {"sodium channel": {"system": "sodium channel", "experiment": "Guanidine influx assay (14C-guanidine radiotracer flux, in vitro)", "format": "cell-based, human or rat", "settings": "guanidine influx assay using a known cell line that expresses a sodium channel", "how_it_was_run": "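Test agents at half-step dilutions around 1 μM are added to plated cells in low-sodium HEPES buffer, then an aconitine/14C-guanidine mixture; after ambient-temperature incubation, cells are washed and counted. IC50 comes from a sigmoidal fit.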"}, "CYP3A4": {"molecular_target": "CYP3A4 (Homo sapiens, UniProt P08684)", "sequence (P08684 whole entry)": "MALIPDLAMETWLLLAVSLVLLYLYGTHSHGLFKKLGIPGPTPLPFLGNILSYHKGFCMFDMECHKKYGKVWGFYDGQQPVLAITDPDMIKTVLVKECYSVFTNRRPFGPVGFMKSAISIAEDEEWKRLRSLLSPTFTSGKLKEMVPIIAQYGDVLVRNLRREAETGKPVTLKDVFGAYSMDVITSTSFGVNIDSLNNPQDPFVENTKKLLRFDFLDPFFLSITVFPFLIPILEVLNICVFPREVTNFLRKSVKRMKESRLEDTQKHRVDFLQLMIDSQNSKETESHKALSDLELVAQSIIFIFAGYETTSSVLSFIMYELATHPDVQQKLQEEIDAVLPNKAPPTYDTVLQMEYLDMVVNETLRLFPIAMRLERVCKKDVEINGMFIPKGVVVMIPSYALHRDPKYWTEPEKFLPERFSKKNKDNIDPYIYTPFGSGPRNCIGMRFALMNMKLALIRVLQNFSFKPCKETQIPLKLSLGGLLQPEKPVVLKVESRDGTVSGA", "experiment": "Cytochrome P450 (CYP450) Inhibition Assay, CYP3A4 (Vivid fluorescence, BOMCC substrate)", "settings": "human, P450 Baculosomes (recombinant CYP3A4), probe BOMCC (Vivid substrate)"}}}
{"smiles": "CN(C)C(=O)c1cccc(CN2C(=O)C3(COc4cc5c(cc43)OCCO5)c3ccccc32)c1", "note": "(stereo not drawn) [Example 12.62, N,N-dimethyl-3-[(2′-oxo-2,3-dihydrospiro[furo[2,3-g][1,4]benzodioxine-8,3′-indol]-1′(2′H)-yl)methyl]benzamide]", "values": [{"measurement": "IC50", "setting": "sodium channel", "result": "100 to 1000", "unit": "nM"}, {"measurement": "melting point", "result": "90 to 96", "unit": "°C"}, {"measurement": "inhibition at 10 µM", "setting": "CYP3A4", "result": "> 50", "unit": "%"}]}
{"smiles": "O=C1N(Cc2ccccn2)c2ccccc2C12COc1ccc3nonc3c12", "note": "(stereo not drawn) [Example 4.124, 1′-(pyridin-2-ylmethyl)spiro[furo[3,2-e][2,1,3]benzoxadiazole-8,3′-indol]-2′(1′H)-one]", "values": [{"measurement": "IC50", "setting": "sodium channel; activity level class", "result": "1 to 100", "unit": "nM"}, {"measurement": "melting point", "result": "180 to 182", "unit": "°C"}, {"measurement": "inhibition at 10 µM", "setting": "CYP3A4", "result": "< 50", "unit": "%"}]}
{"smiles": "COc1cc2c(cc1F)C1(CO2)C(=O)N(Cc2ccccc2)c2ccccc21", "note": "(stereo not drawn) [Example 4.67, 1′-benzyl-5-fluoro-6-methoxyspiro[1-benzofuran-3,3′-indol]-2′(1′H)-one]", "values": [{"measurement": "IC50", "setting": "sodium channel; activity level class", "result": "100 to 1000", "unit": "nM"}, {"measurement": "melting point", "result": "160 to 162", "unit": "°C"}, {"measurement": "inhibition at 10 µM", "setting": "CYP3A4", "result": "< 50", "unit": "%"}]}
{"smiles": "Cn1c(=O)oc2cc3c(cc21)OCC31C(=O)Nc2ccccc21", "note": "(stereo not drawn) [Example 3.13, 3-methylspiro[furo[2,3-f][1,3]benzoxazole-7,3′-indole]-2,2′(1′H,3H)-dione]", "values": [{"measurement": "IC50", "setting": "sodium channel; activity level class", "result": "1000 to 10000", "unit": "nM"}, {"measurement": "melting point", "result": "> 250", "unit": "°C"}, {"measurement": "inhibition at 10 µM", "setting": "CYP3A4", "result": "< 50", "unit": "%"}]}
{"smiles": "CN(C)c1ccc(-c2cccc3c2C2(COc4cc5c(cc42)OCCO5)C(=O)N3Cc2ccccn2)cn1", "note": "(stereo not drawn) [Example 16.59, 4′-(6-(dimethylamino)pyridin-3-yl)-1′-(pyridin-2-ylmethyl)-3,7-dihydro-2H-spiro[benzofuro[5,6-b][1,4]dioxine-8,3′-indolin]-2′-one]", "values": [{"measurement": "IC50", "setting": "sodium channel", "result": "100 to 1000", "unit": "nM"}, {"measurement": "melting point", "result": "187 to 188", "unit": "°C"}, {"measurement": "inhibition at 10 µM", "setting": "CYP3A4", "result": "> 50", "unit": "%"}]}
{"smiles": "O=C(Nc1cccc(F)c1)c1ccc(CN2C(=O)C3(COc4cc5c(cc43)CCO5)c3ccccc32)cc1", "note": "(stereo not drawn) [Example 12.36, N-(3-fluorophenyl)-4-[(2′-oxo-5,6-dihydrospiro[benzo[1,2-b:5,4-b′]difuran-3,3′-indol]-1′(2′H)-yl)methyl]benzamide]", "values": [{"measurement": "IC50", "setting": "sodium channel", "result": "100 to 1000", "unit": "nM"}, {"measurement": "melting point", "result": "> 250", "unit": "°C"}, {"measurement": "inhibition at 10 µM", "setting": "CYP3A4", "result": "< 50", "unit": "%"}]}
{"smiles": "CC(C)c1nc(CN2C(=O)C3(COc4cc5c(cc43)OCO5)c3ccccc32)no1", "note": "(stereo not drawn) [Example 11.26, 1′-{[5-(1-methylethyl)-1,2,4-oxadiazol-3-yl]methyl}spiro[furo[2,3-f][1,3]benzodioxole-7,3′-indol]-2′(1′H)-one]", "values": [{"measurement": "IC50", "setting": "sodium channel", "result": "1 to 100", "unit": "nM"}, {"measurement": "melting point", "result": "196 to 199", "unit": "°C"}, {"measurement": "inhibition at 10 µM", "setting": "CYP3A4", "result": "> 50", "unit": "%"}]}
{"smiles": "CC(C)CCNCCCN1C(=O)C2(COc3cc4c(cc32)CCO4)c2ccccc21.Cl", "note": "(stereo not drawn) [Example 15.1, 1′-{3-[(3-methylbutyl)amino]propyl}-5,6-dihydrospiro[benzo[1,2-b:5,4-b′]difuran-3,3′-indol]-2′(1′H)-one hydrochloride]", "values": [{"measurement": "IC50", "setting": "sodium channel", "result": "1000 to 10000", "unit": "nM"}, {"measurement": "melting point", "result": "98 to 101", "unit": "°C"}, {"measurement": "inhibition at 10 µM", "setting": "CYP3A4", "result": "> 50", "unit": "%"}]}
{"smiles": "CN1C(=O)[C@@]2(COc3cc4c(cc32)OCO4)c2c(-c3ccoc3)cccc21", "note": "[Example 16.61, (7S)-4′-furan-3-yl-1′-methylspiro[furo[2,3-f][1,3]benzodioxole-7,3′-indol]-2′(1′H)-one]", "values": [{"measurement": "IC50", "setting": "sodium channel", "result": "1 to 100", "unit": "nM"}, {"measurement": "melting point", "result": "144 to 145", "unit": "°C"}, {"measurement": "inhibition at 10 µM", "setting": "CYP3A4", "result": "> 50", "unit": "%"}]}
{"smiles": "CC(C)(C)OC(=O)N1C(=O)C2(COc3cc4c(cc32)OCO4)c2c(Br)cccc21", "note": "(stereo not drawn) [Example 18.1, tert-butyl 4′-bromo-2′-oxospiro[furo[2,3-f][1,3]benzodioxole-7,3′-indole]-1′(2′H)-carboxylate]", "values": [{"measurement": "IC50", "setting": "sodium channel", "result": "1 to 100", "unit": "nM"}, {"measurement": "melting point", "result": "154 to 156", "unit": "°C"}, {"measurement": "inhibition at 10 µM", "setting": "CYP3A4", "result": "> 50", "unit": "%"}]}
{"smiles": "O=C1N(C[C@H]2CCCO2)c2ccccc2C12COc1cc3c(cc12)OCCO3", "note": "(stereo partly drawn) [Example 4.44, 1′-[(2R)-tetrahydrofuran-2-ylmethyl]-2,3-dihydrospiro[furo[2,3-g][1,4]benzodioxine-8,3′-indol]-2′(1′H)-one]", "values": [{"measurement": "IC50", "setting": "sodium channel; activity level class", "result": "1 to 100", "unit": "nM"}, {"measurement": "melting point", "result": "174 to 176", "unit": "°C"}, {"measurement": "inhibition at 10 µM", "setting": "CYP3A4", "result": "< 50", "unit": "%"}]}
